Source: publication PMC5700102, “Primer synthesis by a eukaryotic-like archaeal primase is independent of its Fe-S cluster” (Nature Communications, 2017)

Target: T1, PriSLX (Saccharolobus solfataricus, UniProt Q97Z83+Q97ZS7)
T1 construct: gene priS; heterotrimer co-expressed in E. coli Rosetta2(DE3) from pETDuet PriL/PriS and pRSFDuet PriX; no tag mentioned; PriL 307 and PriX 154 residues; with DNA primase large subunit PriL
T1 sequence (Q97Z83 1-330): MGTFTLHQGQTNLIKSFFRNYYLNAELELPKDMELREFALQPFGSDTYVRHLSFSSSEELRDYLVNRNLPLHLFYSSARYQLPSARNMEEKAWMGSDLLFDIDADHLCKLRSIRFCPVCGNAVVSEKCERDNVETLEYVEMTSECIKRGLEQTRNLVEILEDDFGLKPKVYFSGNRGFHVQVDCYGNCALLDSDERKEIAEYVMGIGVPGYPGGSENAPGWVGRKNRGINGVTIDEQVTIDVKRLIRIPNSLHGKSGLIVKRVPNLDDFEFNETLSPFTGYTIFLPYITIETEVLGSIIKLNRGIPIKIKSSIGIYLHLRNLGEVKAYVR
T1 sequence (Q97ZS7 1-154): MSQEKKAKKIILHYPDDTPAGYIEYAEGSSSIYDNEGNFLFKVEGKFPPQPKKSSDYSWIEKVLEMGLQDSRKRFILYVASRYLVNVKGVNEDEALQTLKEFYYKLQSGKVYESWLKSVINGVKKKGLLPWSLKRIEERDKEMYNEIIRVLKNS
T1 sequence (Q9UWW1 1-307 partner): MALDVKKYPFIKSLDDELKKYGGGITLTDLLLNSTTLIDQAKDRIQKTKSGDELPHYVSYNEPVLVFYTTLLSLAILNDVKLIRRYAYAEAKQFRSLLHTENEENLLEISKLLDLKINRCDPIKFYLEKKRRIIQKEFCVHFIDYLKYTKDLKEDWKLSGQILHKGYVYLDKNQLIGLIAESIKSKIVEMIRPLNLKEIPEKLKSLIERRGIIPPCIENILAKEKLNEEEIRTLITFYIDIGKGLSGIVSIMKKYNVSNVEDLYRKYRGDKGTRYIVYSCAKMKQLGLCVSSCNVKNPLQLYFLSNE
Assay: X-ray crystal structure, […] Å
Assay type: binding
Details: two molecules bound: PriS active site (elongation site) and PriX initiation site at the PriX-PriS interface; MnCl2

Nc1ncnc2c1ncn2[C@@H]1O[C@H](COP(=O)(O)CP(=O)(O)OP(=O)(O)O)[C@@H](O)[C@H]1O [AMPCPP]
X-ray crystal structure, 2.9 Å: The first AMPCPP was bound in the active site of PriS
